Square brackets hold non-standard residues; d marks the D form. Ends that are not written are not given here. pY = N[C@@H](Cc1ccc(OP(=O)(O)O)cc1)C(=O)O
Tested on: p110β
Assay: Transcreener ADP formation (fluorescence polarization), diC8-PIP2/POPS liposomes, mouse p110β complexes
Assay type: biochemical
Conditions: ADP formation, 10 μM, Figure 1B
Method: Figure 1 Inhibition of p110β by p85-Type Regulatory Subunits and Activation of the Complexes by RTK Phosphopeptide (A) Domain organization of p110β and the regulatory subunits p85α, p85β, and p55γ. The color scheme for the domains is used for all figures, unless otherwise stated. […] The inhibition is released upon addition of the 10 μM PDGFR pY2. […] The y axis is expressed as a change in fluorescence polarization (ΔmP), which is obtained by subtracting the observed polarization for the construct at a given enzyme concentration from the maximum fluorescence polarization for that construct. The plateau in these assays arises due to the competitive nature of the ADP detection system, based on displacement of ADP-Alexa 633 tracer from the ADP^2-antibody by ADP generated during the PI3K assay (see Supplemental Experimental Procedures). All measurements were done in triplicates, and the error bars indicate the standard error of the mean (SEM). […]
Figure 3 Mutation Y677A in p85β-cSH2 Releases Inhibitory Effect on p110β (A) Kinase activity (ADP formation) of p110β in a complex with p85β-icSH2-Y677A (Y677A-ic) compared to the wild-type complex (ic) in the absence and presence of 10 μM PDGFR pY2 (ADP formation on the y axis expressed as in Figure 1B). […]
The lipid kinase activity was determined using the Transcreener ADP2 FP Assay (BellBrook Labs, Madison, WI) according to manufacturer‟s specifications. This non-radioactive assay measures activity by quantitating the amount of ADP formed. The ADP formed by PI3K competes with fluorescent ADP tracer for binding to an anti-ADP antibody, thereby decreasing fluorescence polarization. Because of the competitive nature of this assay, the change in fluorescence polarization signal is not a linear function of enzyme activity, and a convenient measure of enzyme activity is the EC50, or the concentration of enzyme necessary to give half-maximal inhibition of labeled ADP binding to the antibody, for a given concentration of substrate and a fixed time of reaction at initial rate. […]

effect on kinase activity of complexes containing SH2 domains (nicSH2, niSH2, or icSH2 complexes): stimulates kinase activity
Substance: ESDGG[pY]MDMSKDESID[pY]VPMLDMKGDIKYADIE [pY2, bis-phosphopeptide (PDGFR 735–767, with pY740 and pY751)]
effect on activity of p110β/p85β-iSH2 or ΔABD-p110β: did not affect the activity
